Reference: ChEMBL document CHEMBL3779867, “An NMR Biochemical Assay for Fragment-Based Drug Discovery: Evaluation of an Inhibitor Activity on Spermidine Synthase of Trypanosoma cruzi” (J Med Chem, 2016)

How the values were obtained:
Spermidine synthase [1] = biological target: T1, Spermidine synthase (Trypanosoma cruzi (strain CL Brener), UniProt Q4CXJ6); assay: Inhibition of Trypanosoma cruzi strain CL Brener N-terminal poly-His tagged spermidine synthase expressed in Escherichia coli BL21(DE3) using 50 uM putrescine as substrate in presence of 100 uM dcSAM incubated for 1 hr by NMR analysis based constant-time batch reaction assay
T1 sequence (Q4CXJ6 whole entry): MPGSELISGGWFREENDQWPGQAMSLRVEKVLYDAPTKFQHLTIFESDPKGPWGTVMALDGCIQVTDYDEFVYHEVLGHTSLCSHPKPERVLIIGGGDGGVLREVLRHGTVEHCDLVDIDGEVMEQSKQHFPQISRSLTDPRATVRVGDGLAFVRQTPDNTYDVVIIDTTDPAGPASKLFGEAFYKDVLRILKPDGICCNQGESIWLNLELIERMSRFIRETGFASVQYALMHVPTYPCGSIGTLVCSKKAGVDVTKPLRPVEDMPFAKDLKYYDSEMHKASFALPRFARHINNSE

Spermidine synthase [2] = biological target: T2, Spermidine synthase (Sus scrofa, UniProt Q6QA75); assay: Inhibition of porcine spermidine synthase assessed as production of labeled 5'-methylthioadenosine using putrescine as substrate by enzymatic assay in presence of 10 uM decarboxylated AdoMet
T2 sequence (Q6QA75 whole entry): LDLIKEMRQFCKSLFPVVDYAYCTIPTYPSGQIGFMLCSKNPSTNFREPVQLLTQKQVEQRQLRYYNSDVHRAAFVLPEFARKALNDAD

Spermidine synthase [3] = biological target: T1, Spermidine synthase
Description: Inhibition of Trypanosoma cruzi strain CL Brener N-terminal poly-His tagged spermidine synthase expressed in Escherichia coli BL21(DE3) using 0.5 mM putrescine as substrate in presence of 1 mM dcSAM by FA-real time NMR analysis

IC50 (Spermidine synthase [1]) | IC50 (Spermidine synthase [2]) | IC50 (Spermidine synthase [3]) | SMILES
100000 nM | – | – | NC1=Nc2ccccc2SC1
93 nM | 1700 nM | 620 nM | C[C@H]1CC[C@H](N)CC1
